Experimental data from US8916499B2, “Herbicidal compositions comprising 4-amino-3-chloro-5-fluoro-6-(4-chloro-2-fluoro-3-methoxyphenyl) pyridine-2-carboxylic acid or a derivative thereof and a protoporphyrinogen oxidase inhibitor” (Dow AgroSciences LLC, priority 2012, dated 2014).

Legend:
[1] = tested on: ECHOR; experiment: In-water applied weed control, transplanted paddy rice, greenhouse (Example II); assay type: in vivo, Echinochloa oryzoides (Ard.) Fritsch
[2] = tested on: LEFCH; experiment: as above; assay type: in vivo, Leptochloa chinensis (L.) Nees; conditions: 35 g ae/ha alone
[3] = tested on: IPOHE; experiment: Postemergence foliar-applied weed control, direct seeded rice, greenhouse (Example I); assay type: in vivo, Ipomoea hederacea Jacq.
[4] = tested on: LEFCH; experiment: as above; assay type: in vivo, Leptochloa chinensis (L.) Nees; conditions: g ae/ha Compound A n-Butyl Ester+g ai/ha carfentrazone-ethyl: r11 16+0, r12 0+28, r13 16+28
[5] = tested on: IPOHE; experiment: Pre-emergence soil-applied weed control, greenhouse (Example IV); assay type: in vivo, Ipomoea hederacea (L.) Jacq.
Description: Seeds or nutlets of the desired test plant species were planted in a soil matrix prepared by mixing a loam soil (32 percent silt, 23 percent clay, and 45 percent sand, with a pH of about 6.5 and an organic matter content of about 1.9 percent) and calcareous grit in an 80 to 20 ratio. The soil matrix was contained in plastic pots with a volume of 1 quart and a surface area of 83.6 square centimeters (cm^2).
Treatments consisted of the benzyl ester of 4-amino-3-chloro-5-fluoro-6-(4-chloro-2-fluoro-3-methoxy-phenyl)pyridine-2-carboxylic acid (compound A) formulated as an SC (suspension concentrate) and various herbicidal components alone and in combination. Forms of compound A were applied on an acid equivalent basis.
Other herbicidal components were applied on an acid equivalent or active ingredient basis and included the protoporphyrinogen oxidase (PPO)-inhibiting herbicides, flumioxazin formulated as Payload® and oxadiazon formulated as Ronstar® 50W.
Treatment requirements were calculated based upon the rates being tested, the concentration of active ingredient or acid equivalent in the formulation, and a 12 mL application volume at a rate of 187 L/ha.
For treatments comprised of formulated compounds, measured amounts of compounds were placed individually in 25 mL glass vials and diluted in a volume of 1.25% (v/v) Agri-Dex® crop oil concentrate (COC) to obtain 12× stock solutions. […] Application solutions were prepared by adding an appropriate amount of each stock solution (e.g., 1 mL) and diluted to the appropriate final concentrations with the addition of 10 mL of an aqueous mixture of 1.25% (v/v) COC so that the final spray solutions contained 1.25% (v/v) COC.
All stock solutions and applications solutions were visually inspected for compound compatibility prior to application. Spray solutions were applied to the soil with an overhead Mandel track sprayer equipped with a 8002E nozzles calibrated to deliver 187 L/ha over an application area of 0.503 m^2 at a spray height of 18 inches (46 cm) above average pot height. Control pots were sprayed in the same manner with the solvent blank.
The treated and control pots were placed in a greenhouse and top watered as needed. When required to ensure good germination and healthy plants, a fungicide treatment and/or other chemical or physical treatment was applied. The pots were maintained in a greenhouse with an approximate 14 hr photoperiod which was maintained at about 29° C. during the day and 26° C. during the night. Nutrients (Peters® Excel 15-5-15 5-Ca 2-Mg) were applied in the irrigation solution as needed and water was added on a regular basis. Supplemental lighting was provided with overhead metal halide 1000-Watt lamps as necessary. After approximately 4 weeks, the condition of the test plants as compared with that of the untreated plants was determined visually and scored on a scale of 0 to 100 percent where 0 corresponds to no injury or growth inhibition and 100 corresponds to complete kill.
Colby's equation was used to determine the herbicidal effects expected from the mixtures (Colby, S. R. 1967. Calculation of the synergistic and antagonistic response of herbicide combinations. Weeds 15:20-22.).
The following equation was used to calculate the expected activity of mixtures containing two active ingredients, A and B: Expected=A+B−(A×B/100)

[6] = tested on: ECHCG; experiment: Postemergence foliar-applied weed control, direct seeded rice, greenhouse (Example I); assay type: in vivo, Echinochloa crusgalli (L.) Beauv.
[7] = tested on: DIGSA; experiment: as above; assay type: in vivo, Digitaria sanguinalis (L.) Scop.
[8] = tested on: CYPRO; experiment: In-water applied weed control, transplanted paddy rice, greenhouse (Example II); assay type: in vivo, Cyperus rotundus L.
[9] = tested on: ECHCO; experiment: Postemergence foliar-applied weed control, direct seeded rice, greenhouse (Example I); assay type: in vivo, Echinochloa colona (L.) Link; conditions: g ae/ha Compound A Acid+g ai/ha oxyfluorfen (SC): r24 4.38+0, r25 8.75+0, r26 0+90, r27 4.38+90, r28 8.75+90
[10] = tested on: SCPJU; experiment: In-water applied weed control, transplanted paddy rice, greenhouse (Example II); assay type: in vivo, Schoenoplectus juncoides (Roxb.) Palla
[11] = tested on: ECHCG; experiment: as above; assay type: in vivo, Echinochloa crus-galli (L.) P. Beauv.; conditions: 56.25 g ai/ha alone
[12] = tested on: FIMMI; experiment: as above; assay type: in vivo, Fimbristylis miliacea (L.) Vahl
[13] = g ae/ha Compound A n-Butyl Ester+g ai/ha oxadiazon: r11 17.5+0, r12 0+250, r13 17.5+250

## CCCCOC(=O)c1nc(-c2ccc(Cl)c(OC)c2F)c(F)c(N)c1Cl [Compound A n-Butyl Ester]
[1]; 35 g ae/ha alone
  Visual Weed Control (%) - 21 DAA ECHOR Obs: 25%
[1]; 70 g ae/ha alone
  Visual Weed Control (%) - 21 DAA ECHOR Obs: 38%
[2]
  Visual Weed Control (%) - 21 DAA LEFCH Obs: 8%
[3]; [13]
  Visual Weed Control (%) - 21 DAA IPOHE Obs: 40%
[4]
  Visual Weed Control (%) - 19 DAA LEFCH Obs: 10%

## C#CCOc1cc(-n2nc(C(C)(C)C)oc2=O)c(Cl)cc1Cl [Oxadiargyl, 3-[2,4-dichloro-5-(2-propynyloxy)phenyl]-5-(1,1-dimethylethyl)-1,3,4-oxadiazol-2(3H)-one]
[3]; g ae/ha Compound A Acid+g ai/ha oxadiargyl: r10 4.38+0, r11 8.75+0, r12 17.5+0, r13 0+50, r14 4.38+50, r15 8.75+50, r16 17.5+50
  Visual Weed Control (%) - 22 DAA IPOHE Obs: 25%
[3]; g ae/ha Compound A Benzyl Ester+g ai/ha oxadiargyl: r11 4.38+0, r12 8.75+0, r13 0+50, r14 4.38+50, r15 8.75+50
  Visual Weed Control (%) - 22 DAA IPOHE Obs: 25%

## CC(C)Oc1cc(-n2nc(C(C)(C)C)oc2=O)c(Cl)cc1Cl [Oxadiazon, 3-[2,4-dichloro-5-(1-methylethoxy)phenyl]-5-(1,1-dimethylethyl)-1,3,4-oxadiazol-2(3H)-one]
[5]; 560 g ai/ha alone
  Visual Weed Control (%) - 32 DAA IPOHE Obs: 50%
[5]; 1120 g ai/ha alone
  Visual Weed Control (%) - 32 DAA IPOHE Obs: 100%
[1]; 62.5 g ai/ha alone
  Visual Weed Control (%) - 21 DAA ECHOR Obs: 15%
[1]; 250 g ai/ha alone
  Visual Weed Control (%) - 21 DAA ECHOR Obs: 18%
[1]; second block, g ae/ha Compound A Acid+g ai/ha oxadiazon: r22 35+0, r23 70+0, r24 0+250, r25 35+250, r26 70+250
  Visual Weed Control (%) - 21 DAA ECHOR Obs: 18%
[3]; g ae/ha Compound A Benzyl Ester+g ai/ha oxadiazon: r33 17.5+0, r34 0+250, r35 17.5+250
  Visual Weed Control (%) - 21 DAA IPOHE Obs: 5%
[3]; [13]
  Visual Weed Control (%) - 21 DAA IPOHE Obs: 5%
[3]; second section, g ae/ha Compound A Acid+g ai/ha oxadiazon: r23 17.5+0, r24 35+0, r25 0+250, r26 17.5+250, r27 35+250
  Visual Weed Control (%) - 20 DAA IPOHE Obs: 5%

## CCOc1cc(Oc2ccc(C(F)(F)F)cc2Cl)ccc1[N+](=O)[O-] [Oxyfluorfen, 2-chloro-1-(3-ethoxy-4-nitrophenoxy)-4-(trifluoromethyl)benzene, reference compound]
[6]; g ae/ha Compound A Acid+g ai/ha oxyfluorfen (SC): r13 4.38+0, r14 8.75+0, r15 17.5+0, r16 0+180, r17 4.38+180, r18 8.75+180, r19 17.5+180
  Visual Weed Control (%) - 23 DAA ECHCG Obs: 30%
[7]; g ae/ha Compound A Benzyl Ester+g ai/ha oxyfluorfen (SC): r14 4.38+0, r15 8.75+0, r16 17.5+0, r17 0+180, r18 4.38+180, r19 8.75+180, r20 17.5+180
  Visual Weed Control (%) - 23 DAA DIGSA Obs: 60%
[7]; g ae/ha Compound A Benzyl Ester+g ai/ha oxyfluorfen (technical): r15 4.38+0, r16 8.75+0, r17 17.5+0, r18 0+180, r19 4.38+180, r20 8.75+180, r21 17.5+180
  Visual Weed Control (%) - 21 DAA DIGSA Obs: 50%
[8]; g ae/ha Compound A Acid+g ai/ha oxyfluorfen (SC): r28 16+0, r29 32+0, r30 64+0, r31 0+135, r32 0+270, r33 16+135, r34 32+135, r35 64+135, r36 16+270, r37 32+270, r38 64+270
  Visual Weed Control (%) - 21 DAA CYPRO Obs: 0%
[8]; g ae/ha Compound A Acid+g ai/ha oxyfluorfen (technical): r11 10.6+0, r12 21.2+0, r13 42.4+0, r14 0+180, r15 10.6+180, r16 21.2+180, r17 42.4+180
  Visual Weed Control (%) - 22 DAA CYPRO Obs: 50%
[8]; g ae/ha Compound A Benzyl Ester+g ai/ha oxyfluorfen (SC): r11 32+0, r12 0+135, r13 0+270, r14 32+135, r15 32+270
  Visual Weed Control (%) - 21 DAA CYPRO Obs: 0%
[9]
  Visual Weed Control (%) - 23 DAA ECHCO Obs: 50%
[3]; g ae/ha Compound A Benzyl Ester+g ai/ha oxyfluorfen (SC): r36 4.38+0, r37 8.75+0, r38 17.5+0, r39 0+90, r40 0+180, r41 4.38+90, r42 8.75+90, r43 17.5+90, r44 4.38+180, r45 8.75+180, r46 17.5+180
  Visual Weed Control (%) - 23 DAA IPOHE Obs: 85%
[10]; g ae/ha Compound A Acid+g ai/ha oxyfluorfen (technical): r19 8.75+0, r20 17.5+0, r21 35+0, r22 0+180, r23 0+360, r24 8.75+180, r25 17.5+180, r26 35+180, r27 8.75+360, r28 17.5+360, r29 35+360
  Visual Weed Control (%) - 22 DAA SCPJU Obs: 0%

## CC(C)=C1OC(=O)N(c2cc(OC3CCCC3)c(Cl)cc2F)C1=O [Pentoxazone, 3-[4-chloro-5-(cyclopentyloxy)-2-fluorophenyl]-5-(1-methylethylidene)-2,4-oxazolidinedione]
[11]
  Visual Weed Control (%) - 21 DAA ECHCG Obs: 0%
[8]; 56.25 g ai/ha alone
  Visual Weed Control (%) - 21 DAA CYPRO Obs: 0%
[8]; 112.5 g ai/ha alone
  Visual Weed Control (%) - 21 DAA CYPRO Obs: 0%
[10]; 56.25 g ai/ha alone
  Visual Weed Control (%) - 21 DAA SCPJU Obs: 0%
[10]; 112.5 g ai/ha alone
  Visual Weed Control (%) - 21 DAA SCPJU Obs: 0%
[12]; 56.25 g ai/ha alone
  Visual Weed Control (%) - 21 DAA FIMMI Obs: 25%
[12]; 112.5 g ai/ha alone
  Visual Weed Control (%) - 21 DAA FIMMI Obs: 20%

## CCOC(=O)COc1cc(-c2nn(C)c(OC(F)F)c2Cl)c(F)cc1Cl [Pyraflufen-ethyl, ethyl 2-[2-chloro-5-[4-chloro-5-(difluoromethoxy)-1-methyl-1H-pyrazol-3-yl]-4-fluorophenoxy]acetate, reference compound]
[6]; g ae/ha Compound A Benzyl Ester+g ai/ha pyraflufen-ethyl: r11 8+0, r12 0+5.3, r13 0+10.6, r14 8+5.3, r15 8+10.6
  Visual Weed Control (%) - 21 DAA ECHCG Obs: 15%
